Data set [1] relates to human prostate cancer cells LNCaP. Put plainly: Cell viability inhibition assay (CTG) on LNCaP cells in presence of DHT. In kind it is cell-based. Conditions: Homo sapiens, 120 h, read-out: Inhibitory activity against human prostate cancer cell LNCaP IC50. The source says:
Human prostate cancer cells LNCaP and human prostate cancer cells 22Rvl are present in patients with prostate cancer. An androgen, DHT, is able to promote the growth of human prostate cancer cells LNCaP. Using the cell model described above was intended to study the inhibitory effects of the compounds of the present disclosure on the growth of human prostate cancer cells (human prostate cancer cells LNCaP and human prostate cancer cells 22Rvl) in the presence or absence of DHT.
The medium in the culture dish was discarded, and 5 mL of trypsin was added for digestion for about 3 mins. The digestion was stopped by adding 10 mL of a fresh medium. The cells were fully pipetted and transferred to a 15 mL centrifuge tube, and the cells were collected by centrifugation at 1000 rpm for 5 mins. The cells collected by centrifugation were resuspended in 11 mL of a fresh medium. 1 mL of the cells was taken and counted, and the cell viability was detected. The cell density was adjusted to 1×10^4 cells/mL by adding an appropriate amount of the medium. The cells were seeded in a 96-well plate at 200 µL/well, and the plate was incubated overnight in a cell incubator.
After the cells were attached to the well, for the human prostate cancer cells LNCaP group, test compounds (0.1 μM, 0.3 μM, 1 μM, 3 μM, 10 μM, and 30 μM) and DHT (1 nM, inducing the expression of AR) were added to the 96-well plate, and the plate was incubated for another 5 days; for the human prostate cancer cells 22Rvl group, test compounds (0.1 μM, 0.3 μM, 1 μM, 3 μM, 10 μM, and 30 μM) were added to the 96-well plate, and the plate was incubated for another 5 days. […] The 96-well plate was equilibrated at room temperature for 30 mins. The cell viability was detected by using a CTG method. Before detection, CellTiter-Glo® Buffer and a substrate thereof (collectively called CTG reagent) were thawed and equilibrated to room temperature. Then, […] of Buffer was gently mixed with the substrate to form a homogeneous solution. The homogeneous solution was added to the 96-well plate at 100 µL/well, and the 96-well plate was incubated on a shaker for 15 mins. The fluorescence value in each well was then detected. The detection method for the fluorescence value in each well was as follows: after adding the CTG reagent, luminescence detection (integration time: 500 ms) was performed by using a correspondingly equipped multi-mode microplate reader (M200Pro, TECAN, Switzerland) according to the supplier's manual to quantify the effect of the inhibitor on the cell viability. For data analysis, an assay background value was subtracted from all data points, which was determined in wells containing the medium but no cells. Data were processed using the XLfit software (XLfit 5.2., IDBS, UK), and IC50 values of the test compounds were calculated.

A short description of data set [2]: Pharmacokinetic study, single oral administration to SD rats. Conditions: for AUC(0-t) / Cmax / Tmax / half-life: male, SD, rat, po, 50 mg/kg.
Procedure: Experimental method: Male SD rats were randomly grouped (3 rats per group), given ad libitum access to water during the assay, fasted for 12 or more hours before administration, and given food 4 hours after administration.
The blood was centrifuged within 60 min of being collected to isolate plasma (centrifuged at 8000 rpm at 2-8° C. for 5 min). After the centrifugation, the plasma was transferred to a 96-well plate or centrifuge tubes, transported in a box with ice, and stored at ≤−15° C. before LC-MS/MS analysis. The drug concentration in the plasma of SD rats was measured by LC-MS/MS bioanalysis, and the plasma concentration-time data were analyzed using WinNonlin™ (Version 8.3, Certara, USA) and a non-compartmental model to evaluate the pharmacokinetic (PK) profiles of the compounds in SD rats.
In the next data set the test system is alopecia mouse model. Briefly: Hair growth promotion test in mice with alopecia (testosterone propionate model). In kind it is in vivo, C57BL/6 mice. Conditions: for growth of hairs and hair follicles compared to positive control drug group (in words): daily dose 1.5 mg, FIG. 3; for Number of hair follicles (X ± SD): day 18, per field (×100), HE staining, topical once daily for 16 days; for Hair length (X ± SD): day 18, topical once daily for 16 days, testosterone propionate alopecia mice. Here is the method: The compounds of the present disclosure were tested for their hair growth-promoting effects on an alopecia mouse model.
C57BL/6 mice (purchased from SPF (Beijing) Biotechnology Co., Ltd., production license No.: SCXK (Beijing) 2019-0010), test compounds (prepared by the method of the present disclosure), rosin (Shanghai YuanYe Bio-Technology Co., Ltd., lot No. Y18M10C83144), liquid paraffin (Shanghai YuanYe Bio-Technology Co., Ltd., lot No.: Z22S11Y125555), chloral hydrate (Sinopharm Chemical Reagent Co., Ltd., lot No.: 20190823, a 2% chloral hydrate solution was prepared by using a 0.9% sodium chloride solution before use), testosterone propionate (Aladdin Reagent (Shanghai) Co., Ltd., lot No.: T101368, a 0.5% testosterone propionate solution was prepared by using an a soybean oil for injection before use), soybean oil for injection (Liaoning Shinsun Pharmaceutical Co., Ltd., lot No.: NMPA Approval No. H21024303), paraformaldehyde (Xilong Scientific Co., Ltd., lot No.: 1705022), a 0.9% sodium chloride solution (Jiangsu Huai'an Shuanghe Pharmaceutical Co., Ltd., lot No.: 210322-3C), an electronic balance (Beijing Sartorius Scientific Instruments Co., Ltd., model: BS224 S; GZX-9140MBE), and a digital display electric heating constant temperature air blast drying oven (Shanghai Boxun Medical Biological Instrument Corp.).
8-week-old male C57BL/6 mice were selected and injected with 2% chloral hydrate (400 mg/kg) for anesthesia. Equal amounts of rosin and paraffin were weighed out, heated, and mixed well. The mixture was applied on the front back of the mice in an area of about 2 cm×2.5 cm. After the mixture was cooled to be hard, the solidified hair was torn off by tweezers gently.
Qualified C57BL/6 mice (3 mice per group) were randomly assigned to a blank group, a model group, a positive control drug group (7.5% clascoterone group), and test groups (including 0.3% compound 8 group and 0.3% compound 7 group). Mice in the blank group were coated with 0.1 mL of normal saline in the depilated area every morning (1 time a day for 17 consecutive days); mice in the model group were coated with 0.1 mL of 0.5% testosterone propionate solution in the depilated area every morning (1 time a day, starting on the first day, for 17 consecutive days), and with 0.5 mL of the control solvent in the depilated area every afternoon (1 time a day, starting on the second day, for 16 consecutive days); mice in the positive control drug group were coated with 0.1 mL of 0.5% testosterone propionate solution in the depilated area every morning (1 time a day, starting on the first day, for 17 consecutive days), and with 0.5 mL of 7.5% clascoterone solution in the depilated area every afternoon (1 time a day, starting on the second day, for 16 consecutive days); and mice in the test groups were coated with 0.1 mL of 0.5% testosterone propionate solution in the depilated area every morning (1 time a day, starting on the first day, for 17 consecutive days), and with 0.5 mL of 0.3% test compound solution in the depilated area every afternoon (1 time a day, starting on the second day, for 16 consecutive days). The formula of the test compound solution was 0.3% test compound, 40% DMSO, 30% ethanol, and the balance of water; the formula of the control solvent was 40% DMSO, 30% ethanol, and the balance of water; the formula of the positive control drug group was 7.5% clascoterone, 40% DMSO, 30% ethanol, and the balance of water. The hair regrowth in the depilated area of the mice in each group was observed and photographed 16 days after the start of topical administration of the test compound solution.
On day 18 of the test, 5 new hairs were pulled out from the back depilated area of each mouse in each group, the lengths of the hairs were measured using a vernier caliper, and the lengths of the hairs of the mice in each group were counted. The skin of the depilated area of the mice in each group was cut out, and hematoxylin-eosin staining (HE staining) was performed. […]

Read-outs that look alike come from different tables or passages of the source.

Take `COc1ccc(/C=C/C(=O)C2(C(=O)/C=C/c3ccc(OC)c(OC)c3)CCC(=O)CC2)cc1OC` [Compound 7]: in data set [1], the IC50 (as a rule, the point on the concentration scale where inhibition reaches its midpoint) was 830 nM. In addition, in data set [2] (in vivo), the AUC(0-t) (commonly the area under the concentration-time curve up to a stated or last time point) came out at 460 ng·h/mL; the Cmax – broadly, the maximum level reached in the sampled fluid or tissue – worked out at 298 ng/mL; the Tmax (as a rule, the time from dosing to the highest level) turned out to be 11.4 min; the half-life (usually how long it takes for the measured level to halve) was 177 min. In the data set on alopecia mouse model, the “growth of hairs and hair follicles compared to positive control drug group (in words)” value is on record as “better than that of the positive control drug group”; the “Number of hair follicles (X ± SD)” value is given as 95.600 ± 26.091; the “Hair length (X ± SD)” value is 3.850 ± 0.009 mm.
Regarding `COc1ccc(/C=C/C(=O)C2(C(=O)/C=C/c3ccc(OC)c(OC)c3)CCC(F)(F)CC2)cc1OC` [Compound 8], the IC50 in data set [1] (1 nM DHT, 5 days, CTG) was 610 nM. Further, in data set [2] (SD rats, oral, same dose, FIG. 2), the “AUClast in rats (comparison in words)” value is on record as “higher AUClast than that of compound 7”. In addition, in data set [2] (plasma), the AUC(0-t) is 1010 ng·h/mL, the maximum concentration (Cmax) stood at 282 ng/mL, the time of peak concentration (Tmax) stood at 19.8 min and the half-life is 94.2 min. For the same molecule, in the data set with alopecia mouse model, the “growth of hairs and hair follicles compared to positive control drug group (in words)” value is reported as “better than that of the positive control drug group”; the “Number of hair follicles (X ± SD)” value is recorded as 116.733 ± 35.809; the “Hair length (X ± SD)” value stood at 4.493 ± 0.024 mm.
